≈ marks a conversion by molar mass, not a printed value.
How the values were obtained:
[1] = Toxicity in Wistar-Han rat assessed as erosion of nonglandular stomach at 750 mg/kg, po administered once daily for 7 days; format: organism-based; conditions: in vivo, 168 h, time 7 day
[2] = Toxicity in Wistar-Han rat assessed as effect on mean blood pressure at 60 mg/kg, po administered as single dose and measured upto 24 hrs by telemetric analysis; format: organism-based; conditions: in vivo
[3] = biological target: KCNQ1/KCNE1 (IKs, Kv7.1/MinK) (Homo sapiens, UniProt P15382+P51787); test: Inhibition of human KCNQ1/KCNE1 expressed in HEK293 cells at 30 uM by QPatch voltage clamp assay relative to control; format: cell-based; conditions: HEK293 cells expressing human KCNQ1/KCNE1
[4] = In vivo inhibition of LRRK2 in rhesus monkey assessed as reduction in Ser935 phosphorylation in brain at 100 to 800 mg/kg, po administered once daily for 7 days; format: functional, Macaca mulatta; conditions: dose 100-800 mg/kg, time 7 day
[5] = MRT in Beagle dog at 0.5 mg/kg, iv measured after 24 hrs by LC-MS/MS analysis; format: ADME, organism-based, Canis lupus familiaris; conditions: in vivo
[6] = Protein binding in human plasma incubated for 4 hrs by equilibrium dialysis method; format: ADME, cell-free; conditions: read-out: PPB (converted)
[7] = AUC in Wistar-Han rat at 750 mg/kg, po administered once daily for 7 days; format: ADME, organism-based; design: dose 750 mg/kg, time 7 day, route po; conditions: in vivo
[8] = Total clearance in rhesus monkey at 3 mg/kg, iv measured after 24 hrs by LC-MS/MS analysis; format: ADME, organism-based, Macaca mulatta; conditions: in vivo
[9] = Toxicity in Wistar-Han rat assessed as effect on spontaneous locomotor activity at 225 mg/kg, po administered as single dose and measured upto 24 hrs by telemetric analysis; format: organism-based; conditions: in vivo
[10] = Cardiotoxicity in iv dose guinea pig assessed as increase in QTc interval at high dose administered continuously for 20 min by ECG analysis; format: toxicity, organism-based, Cavia porcellus; conditions: in vivo
[11] = Toxicity in Wistar-Han rat assessed as effect on arterial pulse pressure at 225 mg/kg, po administered as single dose and measured upto 24 hrs by telemetric analysis; format: organism-based; conditions: in vivo
[12] = Toxicity in Wistar-Han rat assessed as degeneration of seminiferous epithelium in testes at 750 mg/kg, po administered once daily for 7 days; format: organism-based; conditions: in vivo, 168 h, time 7 day
[13] = Toxicity in Wistar-Han rat assessed as effect on systolic blood pressure at 60 mg/kg, po administered as single dose and measured upto 24 hrs by telemetric analysis; format: organism-based; conditions: in vivo
[14] = Cmax in Wistar-Han rat at 48 mg administered twice a day by LC-MS/MS analysis; format: ADME; design: dose 48 mg; conditions: in vivo
[15] = Mutagenicity in Salmonella typhimurium TA1535 at 30 to 5000 ug/plate incubated for 48 hrs in presence of Wistar-Han rat S9 fraction by Ames test; format: toxicity, subcellular; conditions: salmonella enterica subsp. enterica serovar typhimurium, s9, 48 h
[16] = Toxicity in Wistar-Han rat assessed as NOAEL measured after 7 days; conditions: in vivo, time 7 day
mouse BCRP = test: Efflux ratio of apparent permeability across basolateral to apical over apical to basolateral side in MDCK-II cells transfected with mouse BCRP incubated for 3 hrs by LC-MS/MS analysis; conditions: dog
[17] = Toxicity in Wistar-Han rat assessed as histopathological change at 750 mg/kg, po administered once daily for 7 days; format: organism-based; conditions: in vivo, 168 h, time 7 day
[18] = In vivo inhibition of LRRK2 in rhesus monkey assessed as reduction in Ser935 phosphorylation in blood PBMC at 100 to 800 mg/kg, po administered once daily for 7 days; format: functional, Macaca mulatta; conditions: dose 100-800 mg/kg, time 7 day
[19] = Toxicity in Wistar-Han rat assessed as effect on body temperature at 60 mg/kg, po administered as single dose and measured upto 24 hrs by telemetric analysis; format: organism-based; conditions: in vivo
[20] = Genotoxicity in CHO-WBL cells incubated for 3 to 24 hrs in presence or absence of rat liver S9 fraction by micronucleus assay; format: toxicity, Cricetulus griseus; conditions: chinese hamster, time 3-24 hrs
[21] = Unbound drug concentration in guinea pig plasma at 5 mg/kg, iv administered continuously for 20 mins; format: ADME, organism-based, Cavia porcellus; conditions: in vivo
[22] = Kinetic solubility of compound in FaSSIF at pH 6.5 measured after 24 hrs by UPLC/DAD analysis; format: physicochemical; conditions: read-out: Kinetic_solubility
[23] = Protein binding in rhesus monkey plasma incubated for 4 hrs by equilibrium dialysis method; format: ADME, cell-free, Macaca mulatta; conditions: read-out: PPB (converted)
[24] = AUC in rhesus monkey at 800 mg/kg, po administered once daily for 7 days; format: ADME, organism-based, Macaca mulatta; design: time 7 day, dose 800 mg/kg, route po; conditions: in vivo
[25] = Oral bioavailability in Beagle dog at 5 mg/kg measured after 24 hrs by LC-MS/MS analysis; format: ADME, organism-based, Canis lupus familiaris; conditions: in vivo
[26] = Toxicity in Wistar-Han rat assessed as body weight loss at 750 mg/kg, po administered once daily for 7 days; format: organism-based; conditions: in vivo, 168 h, time 7 day
[27] = Toxicity in Wistar-Han rat assessed as effect on spontaneous locomotor activity at 60 mg/kg, po administered as single dose and measured upto 24 hrs by telemetric analysis; format: organism-based; conditions: in vivo
[28] = Cardiotoxicity in guinea pig assessed as effect on QRS interval at 5 to 20 mg/kg, iv administered continuously for 20 min by ECG analysis; format: toxicity, organism-based, Cavia porcellus; conditions: in vivo, dose 5-20 mg/kg
[29] = Oral bioavailability in Wistar-Han rat at 5 mg/kg measured after 24 hrs by LC-MS/MS analysis; format: ADME, organism-based; conditions: in vivo
Nav1.5 = Nav1.5 (Homo sapiens, UniProt Q14524); test: Inhibition of human Nav1.5 expressed in HEK293 cells at 30 uM by QPatch voltage clamp assay relative to control; format: cell-based; conditions: HEK293 cells expressing human Nav1.5
[30] = Unbound brain-to-plasma concentration ratio in iv dosed Wistar-Han rat administered as cassette dose by LC-MS/MS analysis; format: ADME, organism-based; conditions: read-out: K(p,uu,brain)
Rattus norvegicus = test: In vivo inhibition of LRRK2 in po dosed Wistar-Han rat assessed as reduction in Ser935 phosphorylation in stratium measured after 2 hrs; format: functional, organism-based; conditions: dose 1-100 mg/kg
rat Mdrl1 P-gp = test: Efflux ratio of apparent permeability across basolateral to apical over apical to basolateral side in MDCK cells transfected with rat Mdrl1 P-gp incubated for 3 hrs by LC-MS/MS analysis; conditions: dog, MDCK-MDR1
[31] = Genotoxicity in human TK6 cells assessed as induction of DNA damage upto 31.9 uM; format: toxicity, cell-based; conditions: tk6, 31.9 µM
[32] = MRT in Wistar-Han rat at 3 mg/kg, iv measured after 24 hrs by LC-MS/MS analysis; format: ADME, organism-based; conditions: in vivo
[33] = AUCtau in Wistar-Han rat at 48 mg administered twice a day by LC-MS/MS analysis; format: ADME; design: dose 48 mg; conditions: in vivo
[34] = Mutagenicity in Salmonella typhimurium TA98 at 30 to 5000 ug/plate incubated for 48 hrs in presence of Wistar-Han rat S9 fraction by Ames test; format: toxicity, subcellular; conditions: salmonella enterica subsp. enterica serovar typhimurium, s9, 48 h
[35] = Cardiotoxicity in guinea pig assessed as effect on PR interval at 5 to 20 mg/kg, iv administered continuously for 20 min by ECG analysis; format: toxicity, organism-based, Cavia porcellus; conditions: in vivo, dose 5-20 mg/kg
hERG = hERG (Homo sapiens, UniProt Q12809); test: Inhibition of hERG expressed in CHO cells at 10 uM by QPatch voltage clamp assay relative to control; format: toxicity, cell-based; conditions: CHO cells expressing hERG
Sequence of hERG (Q12809 whole entry): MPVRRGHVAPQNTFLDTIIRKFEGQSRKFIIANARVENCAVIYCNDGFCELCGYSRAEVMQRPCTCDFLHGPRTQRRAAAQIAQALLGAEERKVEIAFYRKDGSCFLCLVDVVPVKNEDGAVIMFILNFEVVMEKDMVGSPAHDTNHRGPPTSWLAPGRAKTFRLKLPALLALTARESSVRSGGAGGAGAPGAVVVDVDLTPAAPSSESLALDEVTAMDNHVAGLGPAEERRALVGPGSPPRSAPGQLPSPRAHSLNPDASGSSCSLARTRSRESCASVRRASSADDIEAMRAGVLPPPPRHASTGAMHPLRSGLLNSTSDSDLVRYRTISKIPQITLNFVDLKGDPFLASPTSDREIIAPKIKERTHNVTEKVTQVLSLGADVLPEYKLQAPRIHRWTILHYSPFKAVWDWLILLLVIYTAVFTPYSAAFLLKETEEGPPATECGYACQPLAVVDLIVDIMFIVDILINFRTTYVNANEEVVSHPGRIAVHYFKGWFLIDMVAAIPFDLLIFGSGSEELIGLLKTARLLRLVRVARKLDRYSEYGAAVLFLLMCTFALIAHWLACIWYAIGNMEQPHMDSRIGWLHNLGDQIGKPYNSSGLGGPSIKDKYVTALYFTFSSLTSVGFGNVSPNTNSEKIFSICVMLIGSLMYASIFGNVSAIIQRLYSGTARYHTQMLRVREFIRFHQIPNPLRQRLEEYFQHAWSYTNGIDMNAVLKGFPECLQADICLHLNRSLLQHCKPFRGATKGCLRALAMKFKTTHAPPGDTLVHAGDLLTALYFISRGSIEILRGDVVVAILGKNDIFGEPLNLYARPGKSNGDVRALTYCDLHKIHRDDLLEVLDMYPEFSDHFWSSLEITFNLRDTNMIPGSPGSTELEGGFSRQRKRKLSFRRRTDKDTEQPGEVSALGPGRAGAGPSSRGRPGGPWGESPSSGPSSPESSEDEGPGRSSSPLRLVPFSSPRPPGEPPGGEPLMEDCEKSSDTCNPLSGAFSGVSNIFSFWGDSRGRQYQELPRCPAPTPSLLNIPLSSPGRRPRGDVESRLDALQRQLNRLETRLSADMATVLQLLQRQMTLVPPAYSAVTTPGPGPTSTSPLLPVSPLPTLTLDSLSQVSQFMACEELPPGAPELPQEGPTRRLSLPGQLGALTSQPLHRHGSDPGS

Sequence of Nav1.5 (Q14524 whole entry): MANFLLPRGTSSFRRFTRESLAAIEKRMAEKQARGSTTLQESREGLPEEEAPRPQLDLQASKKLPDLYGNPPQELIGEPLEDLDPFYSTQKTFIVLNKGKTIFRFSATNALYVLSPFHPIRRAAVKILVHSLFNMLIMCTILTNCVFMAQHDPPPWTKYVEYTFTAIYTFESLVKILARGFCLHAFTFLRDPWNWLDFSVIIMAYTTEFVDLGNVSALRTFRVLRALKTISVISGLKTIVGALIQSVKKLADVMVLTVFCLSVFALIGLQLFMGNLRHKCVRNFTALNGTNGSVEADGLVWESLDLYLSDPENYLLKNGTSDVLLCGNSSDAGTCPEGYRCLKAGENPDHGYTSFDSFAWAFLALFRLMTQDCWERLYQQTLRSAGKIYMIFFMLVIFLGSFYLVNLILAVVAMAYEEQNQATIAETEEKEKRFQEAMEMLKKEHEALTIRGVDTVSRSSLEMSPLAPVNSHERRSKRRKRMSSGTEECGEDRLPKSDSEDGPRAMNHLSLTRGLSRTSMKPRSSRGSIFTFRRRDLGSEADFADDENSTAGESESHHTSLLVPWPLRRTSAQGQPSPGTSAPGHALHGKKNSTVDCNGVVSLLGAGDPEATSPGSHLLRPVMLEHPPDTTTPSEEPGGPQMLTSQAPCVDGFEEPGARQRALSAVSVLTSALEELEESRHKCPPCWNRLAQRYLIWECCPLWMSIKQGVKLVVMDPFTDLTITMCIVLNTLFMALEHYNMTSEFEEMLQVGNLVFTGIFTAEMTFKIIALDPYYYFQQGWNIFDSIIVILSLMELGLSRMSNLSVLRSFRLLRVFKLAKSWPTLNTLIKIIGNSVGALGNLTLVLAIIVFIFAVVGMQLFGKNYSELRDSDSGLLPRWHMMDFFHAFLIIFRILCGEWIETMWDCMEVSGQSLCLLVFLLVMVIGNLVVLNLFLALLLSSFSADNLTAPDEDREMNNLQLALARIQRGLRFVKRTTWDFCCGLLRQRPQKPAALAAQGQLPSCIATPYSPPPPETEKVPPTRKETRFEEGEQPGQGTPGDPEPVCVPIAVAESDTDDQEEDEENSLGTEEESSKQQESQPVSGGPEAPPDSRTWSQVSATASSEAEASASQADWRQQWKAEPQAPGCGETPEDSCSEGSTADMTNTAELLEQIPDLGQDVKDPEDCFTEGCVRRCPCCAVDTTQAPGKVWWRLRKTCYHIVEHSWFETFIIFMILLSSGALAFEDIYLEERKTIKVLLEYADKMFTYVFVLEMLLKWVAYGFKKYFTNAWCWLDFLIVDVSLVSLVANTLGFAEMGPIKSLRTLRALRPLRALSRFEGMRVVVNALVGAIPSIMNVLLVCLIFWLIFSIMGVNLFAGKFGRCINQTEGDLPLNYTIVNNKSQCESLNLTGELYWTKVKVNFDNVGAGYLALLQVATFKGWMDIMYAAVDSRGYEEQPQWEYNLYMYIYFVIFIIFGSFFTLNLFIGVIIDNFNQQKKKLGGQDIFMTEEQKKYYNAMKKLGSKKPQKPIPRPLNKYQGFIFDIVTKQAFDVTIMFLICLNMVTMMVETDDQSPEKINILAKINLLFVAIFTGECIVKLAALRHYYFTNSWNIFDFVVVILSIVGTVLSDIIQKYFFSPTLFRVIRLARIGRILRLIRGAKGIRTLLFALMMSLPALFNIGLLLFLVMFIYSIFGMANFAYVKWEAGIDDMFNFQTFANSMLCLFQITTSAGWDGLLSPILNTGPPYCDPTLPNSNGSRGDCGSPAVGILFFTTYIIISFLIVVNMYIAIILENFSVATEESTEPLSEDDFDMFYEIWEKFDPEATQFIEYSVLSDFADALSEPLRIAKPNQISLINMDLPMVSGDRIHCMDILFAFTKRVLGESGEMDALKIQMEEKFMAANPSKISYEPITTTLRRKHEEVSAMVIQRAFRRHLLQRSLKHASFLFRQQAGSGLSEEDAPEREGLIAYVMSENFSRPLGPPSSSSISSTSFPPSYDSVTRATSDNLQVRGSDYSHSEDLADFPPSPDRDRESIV
Sequence of KCNQ1/KCNE1 (IKs, Kv7.1/MinK) (P51787 whole entry): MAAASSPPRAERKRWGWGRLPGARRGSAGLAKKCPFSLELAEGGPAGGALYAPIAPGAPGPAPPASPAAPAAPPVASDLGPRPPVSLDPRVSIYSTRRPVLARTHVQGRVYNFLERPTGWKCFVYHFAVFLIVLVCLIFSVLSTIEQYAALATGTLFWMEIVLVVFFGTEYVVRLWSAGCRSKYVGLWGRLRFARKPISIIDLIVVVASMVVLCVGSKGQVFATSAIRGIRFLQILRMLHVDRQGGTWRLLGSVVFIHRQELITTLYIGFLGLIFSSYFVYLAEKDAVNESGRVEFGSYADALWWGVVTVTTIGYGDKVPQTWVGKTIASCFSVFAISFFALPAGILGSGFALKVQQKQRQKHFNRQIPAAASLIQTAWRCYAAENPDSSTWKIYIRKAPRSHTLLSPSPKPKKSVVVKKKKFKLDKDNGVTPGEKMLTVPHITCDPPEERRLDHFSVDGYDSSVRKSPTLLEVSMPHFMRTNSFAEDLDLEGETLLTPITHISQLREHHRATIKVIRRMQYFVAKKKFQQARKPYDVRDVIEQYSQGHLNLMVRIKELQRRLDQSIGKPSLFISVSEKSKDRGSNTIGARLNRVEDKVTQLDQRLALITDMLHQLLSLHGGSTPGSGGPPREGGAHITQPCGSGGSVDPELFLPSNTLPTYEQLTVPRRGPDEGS

C[C@@]1(N2CCN(c3cc4cc(NC(=O)[C@H]5CC56CCOCC6)ncc4cc3Cl)CC2)COC[C@@H]1O
Activity [1]: Toxic | Activity [2]: Non-Toxic | inhibition at 30 µM [3]: 18% | fIC50 [4]: 7 nM | MRT [5]: 29 h | fraction unbound at 4 h [6]: 0.131 | AUC at 168 h [7]: 395 µM·h | clearance [8]: 22 mL/min/kg | Activity [9]: Non-Toxic | Activity [10]: Toxic | Activity [11]: Non-Toxic | Activity [12]: Toxic | Activity [13]: Non-Toxic | Cmax [14]: 750 nM | Activity [15]: Non-Toxic | NOAEL at 168 h [16]: 225 mg/kg/day | efflux ratio at 3 h (mouse BCRP): 2.6 | Activity [17]: Non-Toxic | fIC50 [18]: 4.7 nM | Activity [19]: Non-Toxic | Activity [20]: Non-Toxic | Cp(f) [21]: 1.29 µM | solubility kinetic at 24 h [22]: 6 µM (≈ 3.01 µg/mL) | fraction unbound at 4 h [23]: 0.12 | AUC at 168 h [24]: 63 µM·h | bioavailability [25]: 100% | Activity [26]: Toxic | Activity [27]: Non-Toxic | Activity [28]: Non-Toxic | bioavailability [29]: 56% | inhibition at 30 µM (Nav1.5): 34% | Kp uu [30]: 0.3 | inhibition (Rattus norvegicus): Dose-Dependent Effect | efflux ratio at 3 h (rat Mdrl1 P-gp): 2.1 | Activity [31]: Non-Toxic | MRT [32]: 2.2 h | AUC [33]: 3 µM·h | Activity [34]: Non-Toxic | Activity [35]: Non-Toxic | inhibition at 10 µM (hERG): 15%

Source: ChEMBL document CHEMBL5370643, “Discovery of MK-1468: A Potent, Kinome-Selective, Brain-Penetrant Amidoisoquinoline LRRK2 Inhibitor for the Potential Treatment of Parkinson's Disease” (J Med Chem, 2023)
